Experimental data reported in ChEMBL document CHEMBL3259583, “Synthesis and biological evaluation of (+)-neopeltolide analogues: importance of the oxazole-containing side chain” (Bioorg Med Chem Lett, 2014).

Experiments:
A549 [1] = assay: Antiproliferative activity against human A549 cells after 120 hrs by WST-8 assay; assay type: functional, cell-based; details: A549, 120 h
[2] = Antiproliferative activity against human PANC1 cells after 96 hrs by WST-8 assay; assay type: functional, cell-based; details: PANC-1, 96 h
A549 [3] = assay: Ratio of (+)-Neopeltolide IC50 to compound IC50 for human A549 cells after 120 hrs by WST-8 assay; assay type: functional

Row | Compound | IC50 (A549 [1]) [nM] | IC50 [2] [nM] | Ratio IC50 (A549 [3])
1 | CCC[C@H]1C[C@@H](OC)C/C(C)=C\[C@@H]2C[C@@H](OC(=O)/C=C\CCc3coc(C=C(C)C)n3)C[C@H](CC(=O)O1)O2 | 3900 | 2800 | –
2 | CCC[C@H]1C[C@@H](OC)C/C(C)=C\[C@@H]2C[C@@H](OC(=O)/C=C\CCc3coc(CCCNC(=O)OC)n3)C[C@H](CC(=O)O1)O2 | 400 | 200 | –
3 | C/C=C\c1nc(CC/C=C\C(=O)O[C@H]2C[C@@H]3CC(=O)O[C@@H](CCC)C[C@@H](OC)C/C(C)=C\[C@H](C2)O3)co1 | 740 | 440 | –
4 | CCC[C@H]1C[C@@H](OC)C/C(C)=C\[C@@H]2C[C@@H](OC(=O)CCCCc3coc(CCCNC(=O)OC)n3)C[C@H](CC(=O)O1)O2 | > 10000 | 3200 | –
5 | CCC[C@H]1C[C@@H](OC)C/C(C)=C\[C@@H]2C[C@@H](OC(=O)c3ccccc3CCc3coc(/C=C\CNC(=O)OC)n3)C[C@H](CC(=O)O1)O2 | 500 | 75 | –

Second part, led by results:

Row | IC50 (A549 [1]) [nM] | Compound | IC50 [2] [nM] | Ratio IC50 (A549 [3])
6 | 110 | CCC[C@H]1C[C@@H](OC)C/C(C)=C\[C@@H]2C[C@@H](OC(=O)CCCCc3coc(/C=C\CNC(=O)OC)n3)C[C@H](CC(=O)O1)O2 | 26 | –
7 | 0.5 | CCC[C@H]1C[C@@H](OC)C/C(C)=C\[C@@H]2C[C@@H](OC(=O)/C=C\CCc3coc(/C=C\CNC(=O)OC)n3)C[C@H](CC(=O)O1)O2 | 2.4 | 3
8 | 2.5 | CCC[C@H]1C[C@@H](OC)C/C(C)=C\[C@@H]2C[C@@H](OC(=O)/C(C)=C\CCc3coc(/C=C\CNC(=O)OC)n3)C[C@H](CC(=O)O1)O2 | 2.6 | –
9 | 6.3 | CCC[C@H]1C[C@@H](OC)C/C(C)=C\[C@@H]2C[C@@H](OC(=O)/C=C(/C)CCc3coc(/C=C\CNC(=O)OC)n3)C[C@H](CC(=O)O1)O2 | 6.4 | –
